Bridge positions count the residues as written; N and C are the ends. Square brackets hold non-standard residues; d marks the D form. Ends that are not written are not given here. cellulose = not defined here; βAla = NCCC(=O)O
Experiments:
Assay type in all cases: binding
Parameters in all cases: key: No binding of immunoglobulin for the defined peptide variant, detection negative: 0; Binding of immunoglobulin for the defined peptide variant, detection positive: +
[1] = system: immunoglobulins in human plasma; assay: Cellulose-immobilized 13-mer peptide variants incubated with human plasma, anti-human IgG-AP detection; conditions: human plasma as sample, diluted 1:10,000 in blocking buffer, 3 h room temperature
In short: (§1)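 Membrane-bound peptides, spaced by two β-alanines, are probed with 1 μg/ml IgG-Fc or 1:10,000 serum for 3 h at room temperature; blocking buffer alone acts as control. Detection uses anti-human IgG-AP (1.2 μg/ml) and NBT/BCIP.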

[2] = system: serum albumin; assay: Cellulose-immobilized 13-mer peptide variants incubated with serum albumin (negative control), anti-human IgG-AP detection; conditions: blocking buffer without addition, 3 h room temperature
In short: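 Spot membrane, (βA)(βA) spacer; T-TBS pH 8.0 wash, block 5% saccharose/4% BSA. 3 h RT with IgG-Fc 1 μg/ml, serum 1:10,000, or block buffer only (specificity control). 3× wash, AP-anti-human IgG 1.2 μg/ml, NBT/BCIP in pH 9.5 buffer.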

[3] = system: human IgG-Fc; assay: Cellulose-immobilized 13-mer peptide variants incubated with human IgG-Fc, anti-human IgG-AP detection; conditions: IgG-Fc 1 μg/ml in blocking buffer, 3 h room temperature
In short: as §1

| Substance | Result for incubation with human plasma (immunoglobulin binding detection) [1] | Result for incubation with serum albumin (immunoglobulin binding detection) [2] | Result for incubation with human IgG-Fc (immunoglobulin binding detection) [3] |
| --- | --- | --- | --- |
| 09E: cellulose-bound 13-mer variant DCAWHLGEEVWCT-(βA)(βA) (DCAWHLGEEVWCT-{βAla-βAla-cellulose}; disulfide 2-12 (inferred); reading uncertain; also: printed as DCAWHLGEEVWCT-(βA)(βA)) | 0 | 0 | 0 |
| 11A: cellulose-bound 13-mer variant DCAWHLGELVACT-(βA)(βA) (DCAWHLGELVACT-{βAla-βAla-cellulose}; disulfide 2-12 (inferred); reading uncertain; also: printed as DCAWHLGELVACT-(βA)(βA)) | 0 | 0 | 0 |
| 09A: cellulose-bound 13-mer variant DCAWHLGEAVWCT-(βA)(βA) (DCAWHLGEAVWCT-{βAla-βAla-cellulose}; disulfide 2-12 (inferred); reading uncertain; also: printed as DCAWHLGEAVWCT-(βA)(βA)) | 0 | 0 | 0 |
| 10G: cellulose-bound 13-mer variant DCAWHLGELGWCT-(βA)(βA) (DCAWHLGELGWCT-{βAla-βAla-cellulose}; disulfide 2-12 (inferred); reading uncertain; also: printed as DCAWHLGELGWCT-(βA)(βA)) | 0 | 0 | 0 |
| 03E: cellulose-bound 13-mer variant DCEWHLGELVWCT-(βA)(βA) (DCEWHLGELVWCT-{βAla-βAla-cellulose}; disulfide 2-12 (inferred); reading uncertain; also: printed as DCEWHLGELVWCT-(βA)(βA)) | 0 | 0 | + |
| 02K: cellulose-bound 13-mer variant DKAWHLGELVWCT-(βA)(βA) (DKAWHLGELVWCT[βAla][βAla]; not fully specified; printed as DKAWHLGELVWCT-(βA)(βA); also: cellulose-bound) | 0 | 0 | 0 |
| 12A: cellulose-bound 13-mer variant DCAWHLGELVWAT-(βA)(βA) (DCAWHLGELVWAT-{βAla-βAla-cellulose}; not fully specified; printed as DCAWHLGELVWAT-(βA)(βA); reading uncertain) | 0 | 0 | 0 |
| 08P: cellulose-bound 13-mer variant DCAWHLGPLVWCT-(βA)(βA) (DCAWHLGPLVWCT-{βAla-βAla-cellulose}; disulfide 2-12 (inferred); not fully specified (N-terminus); printed as DCAWHLGPLVWCT-(βA)(βA); reading uncertain) | 0 | 0 | 0 |
| 03C: cellulose-bound 13-mer variant DCCWHLGELVWCT-(βA)(βA) (DCCWHLGELVWCT-{βAla-βAla-cellulose}; disulfide (positions not given here); not fully specified; printed as DCCWHLGELVWCT-(βA)(βA); reading uncertain) | 0 | 0 | 0 |
| 06Q: cellulose-bound 13-mer variant DCAWHQGELVWCT-(βA)(βA) (DCAWHQGELVWCT-{βAla-βAla-cellulose}; disulfide 2-12 (inferred); not fully specified (N-terminus); printed as DCAWHQGELVWCT-(βA)(βA); reading uncertain) | + | 0 | + |
| 05Y: cellulose-bound 13-mer variant DCAWYLGELVWCT-(βA)(βA) (DCAWYLGELVWCT[βAla][βAla]; disulfide 2-12 (inferred); not fully specified (N-terminus); printed as DCAWYLGELVWCT-(βA)(βA); also: cellulose-bound) | 0 | 0 | 0 |
| 01H: cellulose-bound 13-mer variant HCAWHLGELVWCT-(βA)(βA) (HCAWHLGELVWCT-{βAla-βAla-cellulose}; disulfide 2-12 (inferred); reading uncertain; also: printed as HCAWHLGELVWCT-(βA)(βA)) | 0 | 0 | + |
| 09T: cellulose-bound 13-mer variant DCAWHLGETVWCT-(βA)(βA) (DCAWHLGETVWCT-{βAla-βAla-cellulose}; disulfide 2-12 (inferred); reading uncertain; also: printed as DCAWHLGETVWCT-(βA)(βA)) | 0 | 0 | 0 |
| 07L: cellulose-bound 13-mer variant DCAWHLLELVWCT-(βA)(βA) (DCAWHLLELVWCT-{βAla-βAla-cellulose}; disulfide 2-12 (inferred); not fully specified (N-terminus); printed as DCAWHLLELVWCT-(βA)(βA); reading uncertain) | 0 | 0 | 0 |
| 03P: cellulose-bound 13-mer variant DCPWHLGELVWCT-(βA)(βA) (DCPWHLGELVWCT-{βAla-βAla-cellulose}; disulfide 2-12 (inferred); reading uncertain; also: printed as DCPWHLGELVWCT-(βA)(βA)) | 0 | 0 | 0 |

Source: patent publication US7205382B2, “Peptides, the production and use thereof for binding immunoglobulins” (Fresenius Medical Care Affina GmbH, priority 2000, dated 2007)
